Measurements taken from patent US20100261700A1, “BETA-LACTAMASE INHIBITORS” (priority 2009, published 2010).

Experiments:
[1] = molecular target: T1, beta-lactamase from Enterobacter cloacae (Enterobacter cloacae, UniProt P05364); experiment: Assay (I) for beta-lactamase activity, Cefesone hydrolysis (product inhibition); format: biochemical; conditions: reaction continued for two hours; theoretical maximal absorbance approximately 1.6; said to be consistent with product inhibition
T1 construct: purchased Sigma-Aldrich
Experimental: A chromogenic cephalosporin, Cefesone, is synthesized and isolated, for example, as described by Sutton et al. International Application WO 2009/049086 and used to monitor p-lactamase activity. A typical assay monitors the hydrolysis of Cefesone via the formation of a species which absorbs at 486 nm (molar absorptivity constant 16,000). Absorption is monitored as a function of time in 0.1 M, pH 7.0 sodium phosphate, 0.2 mM Cefesone and 4 volume percent DMSO cosolvent at 30° C. using a Beckman DU-40 spectrophotometer having a circulating water bath attached to the cuvette holder. The assay is initiated by addition and mixing of an appropriate amount of beta-lactamase.
The beta-lactamase assay using enzyme fro Enterobacter cloacae (Sigma-Aldrich, St. Louis, Mo.) was carried out as in Example 2 (assay I) above with compound 2. After the initial rate was determined the reaction was allowed to continue for two hours. Theoretical maximal absorbance at 486 nm is approximately 1.6 while the observed final absorbance was consistently 0.26.

[2] = molecular target: T1, beta-lactamase from Enterobacter cloacae; experiment: Time dependent inhibition of beta-lactamase, with dialysis to test for return of activity; format: biochemical; conditions: 10 mL 0.1 units/mL beta-lactamase with 500 microM inhibitor, dialysed against 1 L 0.1 M sodium phosphate buffer (pH 7.0), one exchange

T1 sequence (P05364 21-381): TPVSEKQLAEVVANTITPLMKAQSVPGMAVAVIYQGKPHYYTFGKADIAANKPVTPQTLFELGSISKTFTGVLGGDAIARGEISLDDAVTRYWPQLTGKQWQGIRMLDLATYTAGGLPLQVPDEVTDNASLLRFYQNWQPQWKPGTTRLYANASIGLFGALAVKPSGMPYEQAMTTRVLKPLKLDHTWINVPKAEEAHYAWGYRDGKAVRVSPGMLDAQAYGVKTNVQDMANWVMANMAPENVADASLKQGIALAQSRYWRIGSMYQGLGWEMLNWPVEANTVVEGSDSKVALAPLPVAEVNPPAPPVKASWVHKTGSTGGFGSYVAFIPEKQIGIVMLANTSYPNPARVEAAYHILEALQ

SMILES	observed final absorbance at 486 nm [1]	return of beta-lactamase activity after dialysis [2]
O=C(Cc1ccccc1)NC1C(=O)N2C(C(=O)O)=C(/C=C/C3CC3)CSC12 (stereo not drawn) [compound 2, 3-vinylcyclopropane-7-(2-phenylacetamido)-3-Cephem-4-carboxylic acid]	0.26	no return of activity
O=C(Cc1ccccc1)NC1C(=O)N2C(C(=O)O)=C(/C=C/c3ccc(CBr)cc3)CSC12 (stereo not drawn) [compound 4, 3-(1-bromomethyl-4-vinylbenzene)-7-(2-phenylacetamido)-3-Cephem-4-carboxylic acid]		no return of activity
